Results on two molecules are retold here after US20250145600A1, “2-((4-((S)-2-(4-CHLORO-2-FLUOROPHENYL)-2-METHYLBENZO[D][1,3]DIOXOL-4-YL)PIPERIDIN-1-YL)METHYL)-1-(((S)-OXETAN-2-YL)METHYL)-1H-IMIDAZOLE DERIVATIVES AS ACTIVATORS OF THE GLP1 RECEPTOR FOR THE TREATMENT OF OBESITY” (Novartis AG, priority 2022, published 2025).

pEC50: −log10 of the molar value.

This assay addresses human GLP1R (Homo sapiens, UniProt P43220). Kind of assay: Human GLP1R DERET internalization assay. The assay is classed as cell-based. The conditions noted are these: HEK293-SNAP-hGLP1R-GloSensor cells; for pEC50: top concentration 30 μM; for Emax: relative to GLP1(7-36). The method, then:
Compounds of formula (I) according to the invention were tested in the following cellular assays that measure the intracellular cAMP concentration, beta-arrestin recruitment and receptor internalization. The cAMP is generated by the activation of GLP1R. The extent to which the GLP1R is internalized into the cell and away from the plasma membrane following activation is also shown in Table 2. EC50 for each assay is defined as the concentration of the compound that leads to half of the maximum response (after baseline correction). Emax is defined as the maximum response observed for the test compound, normalized to the maximum response observed for the endogenous ligand (GLP1(7-36)) to GLP1R.
Human GLP1R DERET Internalization Assay
The extent to which agonists internalize the human GLP1R was determined based on an optimized version of a RealTime FRET-based ‘DERET’ (Dissociation Enhanced Resonance Energy Transfer) assay. The technology relies on labeling of the SNAP-tagged GPCR with a SNAP-Lumi-Terbium (donor fluorophore, Cisbio, cat #SSNPTBD). The compounds are incubated with the cells over-expressing the GPCR of interest in the presence of an excess of fluorescein (acceptor fluorophore). When the GPCR is on the cell surface, the donor signal is quenched by the acceptor and the donor/acceptor ratio is low. As the GPCR internalizes, the donor signal is no longer quenched, and the acceptor is no longer excited so the donor/acceptor ratio increases.
HEK293-SNAP-hGLP1R-GloSensor cells (stably overexpressing SNAP-tagged hGLP1R) were seeded overnight in white 384-well poly-D-Lysine coated plates (Greiner Bio One, cat #781945) in regular DMEM growth medium (Gibco, cat #11965-092, 10% heat-inactivated FBS, 10 mM HEPES, 1× penicillin/streptomycin, 0.5 mg/mL geneticin (Gibco, cat #10131-035) and 0.25 mg/mL hygromycin B (Invitrogen, cat #10687010). On the assay day, cell medium was removed and 100 nM SNAP-Lumi-Tb reagent was added in Opti-MEM solution. The cells were incubated at 37° C. for 1 h. Cells were washed using a plate washer in assay buffer [1×HBSS (10× Gibco, cat #14065-056), 20 mM Hepes (Gibco, cat #15630-080), 1 mM CaCl2 (Fluka, cat #21114-1L), 1 mM MgCl2 (Ambion, cat #AM9530G) pH7.4], and 20 μL buffer with 0.1% BSA was added to each well. After leaving cells to equilibrate for […] at 37° C., 10 μL of Fluorescein (sodium salt, Sigma, cat #F6377, diluted in buffer) was added at 25 μM final concentration. To generate triplicate dose response curves, compounds were serially diluted 3-fold in assay buffer, then added to the cell assay plate to a final volume of 40 μL and final top concentrations starting at 30 μM. In the same plate and assay buffer as the tested compounds, a GLP1 (7-36) peptide (Bachem, cat #H-6795) control curve was included at a final top concentration of 1 μM in order to establish EC100. EC0 wells with buffer only were also included. The plate FRET fluorescence was measured immediately using a Perkin Elmer Envision with LANCE/DELFIA D400 single mirror, excitation filter X320, and emission filters M615_203 (donor emission) and M515 (acceptor emission), and then measured every 30 min. […] Plates were kept at 37° C. between reads. Data was expressed as the ratio of donor/acceptor emissions using Microsoft Excel and plotted in GraphPad Prism. In order to determine EC50 and Emax for internalization, data was calculated and expressed as percent of the GLP1 (7-36) EC100 control wells: [(sample signal−mean EC0 signal)/(mean EC100 of GLP1 (7-36) signal−mean EC0 signal)]*100 using Microsoft Excel. Curve fitting for EC50 determinations was performed using GraphPad Prism. The 4-parameter logistic model, Hill slope was used:
where Y is the functional response; X is the compound concentration; bottom is A0 or the minimum value (at 0 dose); top is Ainf or the maximum value (at infinite dose); EC50 is the point of inflection (i.e. the point on the sigmoid shaped curve halfway between A0 and Ainf). […]

Sequence of human GLP1R (P43220 24-463): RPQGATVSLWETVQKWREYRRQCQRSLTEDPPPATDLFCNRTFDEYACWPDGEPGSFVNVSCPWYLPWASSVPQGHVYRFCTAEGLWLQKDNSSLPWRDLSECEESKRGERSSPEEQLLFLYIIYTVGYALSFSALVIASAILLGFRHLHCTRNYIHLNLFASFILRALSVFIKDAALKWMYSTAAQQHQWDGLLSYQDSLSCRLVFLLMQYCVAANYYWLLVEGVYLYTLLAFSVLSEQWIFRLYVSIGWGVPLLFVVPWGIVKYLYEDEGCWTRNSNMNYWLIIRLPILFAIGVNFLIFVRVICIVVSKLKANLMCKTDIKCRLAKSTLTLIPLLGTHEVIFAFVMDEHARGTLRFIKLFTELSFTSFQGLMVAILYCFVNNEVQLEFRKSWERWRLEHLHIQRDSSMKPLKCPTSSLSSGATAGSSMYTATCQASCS

Consider `Cc1nc(CN2CCC(c3cccc4c3O[C@@](C)(c3ccc(Cl)cc3F)O4)CC2)n(C[C@@H]2CCO2)c1-c1cc(C(=O)O)n(C)n1` [Compound C-21, 3-(2-((4-((S)-2-(4-chloro-2-fluorophenyl)-2-methylbenzo[d][1,3]dioxol-4-yl)piperidin-1-yl)methyl)-4-methyl-1-(((S)-oxetan-2-yl)methyl)-1H-imidazol-5-yl)-1-methyl-1H-pyrazole-5-carboxylic acid], for which the negative-log EC50 (pEC50) (as a rule, −log10 of the EC50, conventionally taken in molar units) is below 4.52 and the Emax (usually the greatest response seen or fitted, relative to the assay's reference) was determined as 2%.
Taken in the same sequence, the figures for `Cc1c(-c2ccc(C(=O)O)o2)nc(CN2CCC(c3cccc4c3O[C@@](C)(c3ccc(Cl)cc3F)O4)CC2)n1C[C@@H]1CCO1` [Compound C-24, 5-(2-((4-((S)-2-(4-chloro-2-fluorophenyl)-2-methylbenzo[d][1,3]dioxol-4-yl)piperidin-1-yl)methyl)-5-methyl-1-(((S)-oxetan-2-yl)methyl)-1H-imidazol-4-yl)furan-2-carboxylic acid] were 6.31 and 19%.
